Results reported in patent US5977144A (priority 1997, dated 1999).
Entries after “also recorded” stand apart in the source; their conditions may differ. Structures can show the parent of a compound that is named as a salt. Where two headings read alike, the source gives them in different places.

What was measured:
[1] = molecular target: alpha7 receptor (high affinity alpha-bungarotoxin binding, rat brain membranes) (Rattus norvegicus, UniProt Q05941); assay: biochemical
rat alpha7 receptor [2] = molecular target: T1, rat alpha7 receptor (Rattus norvegicus, UniProt Q05941); assay: cell-based
Method: FIG. 13A. Effects of chronic injections of DMXB or nicotine on high affinity [^3 H]ACh or [^125 I]α-bungarotoxin (BTX) binding in rat neocortices. Adult male rats were injected with saline vehicle, 1 mg/kg DMXB or 0.2 mg/kg nicotine (NIC) (IP) daily for 2 weeks. At that time, neocortices were removed and assayed for high affinity [^3 H]ACh or [^125 I]α-bungarotoxin binding as described in the text. […] Responses of rat α7 ACHR to 3-CA, 2-MeOCA and 4-MeOCA. Concentration-response relationships for the peak agonist activated currents of oocytes injected with RNA coding for the rat α7 subunit. All responses were initially measured relative to the individual oocyte-response to 500 μM ACh, applied 5 min prior to drug-application. Responses were normalized relative to the maximum response obtainable with ACh so that a response of 1 represents full efficacy. The ratio of 500 μM ACh control response to ACh maximum was taken from Papke et al., 1997.
(§1) Oocytes were prepared and recordings made as described previously (de Fiebre, et al., 1995). Frogs were anesthetized by submersion in 0.1% (3)-aminobenzoic acid ethyl ester and several lobes of the ovary surgically removed through a small incision in the abdomen wall. Oocytes were freed from the follicle cells by treatment with collagenase (in calcium-free Barth's solution: 88 mM NaCl, 1 mM KCl, 15 mM Hepes pH 7.6, 0.33 mM MgSO4, 0.1 mg/ml gentamicin sulfate) for 2 hr at room temperature and Stage 5 oocytes were isolated. Oocytes were rinsed and stored at 18° C. in Barth's saline (88 mM NaCl, 1 mM KCl, 15 mM Hepes pH 7.6, 0.3 mM Ca(NO3)2, 0.41 mM CaCl2, 0.82 mM MgSO4, 0.1 mg/ml gentamicin sulfate) before and after microinjection with RNA. Microinjection was conducted with a Drummond Scientific "Nanoject Variable" automatic injector. Oocytes were injected with a 50 nl solution of specified rat nicotinic subunit mRNA species (2-10 mg/ml; derived from the cDNA containing HIP 306 plasmid kindly provided by Dr. Jim Boulter, Salk Institute) and incubated 2-7 days at 18° C. before electrophysiological recording. electrophysiological recordings, oocytes were perfused in a Warner Instruments RC-8 recording chamber with a perfusion solution containing 115 mM NaCl, 2.5 mM KCl, 10 mM Hepes pH 7.2, 1.8 mM CaCl2 and 1 μM atropine to block muscarinic responses. Perfusion was continuous at a rate of 10 ml/min. Drags were diluted in perfusion solution and applied using a solenoid valve to switch from perfusion to drug solutions. Current responses to drug administration were studied under two electrode voltage clamp at a holding potential of -70 mV using a Dagan Corp. TEV-200 voltage clamp connected to a 386-SX IBM computer using a TL-1 DMA interface (Axon Instruments). Micropipettes were filled with 3 M KCl and had resistances of 0.5-2 MOhms. Drug responses are analyzed with PClamp software (Axon Instruments). Oocytes with resting potentials of less than -30 mV were rejected.

rat alpha4beta2 receptor = rat alpha4beta2 receptor (Rattus norvegicus, UniProt P09483+P12390); assay: Activation of alpha4beta2 receptors expressed in Xenopus oocytes; type: cell-based; details: for Emax: read-out: alpha4beta2 activation: response compared to maximal acetylcholine
Method: FIG. 14A. Responses of α4β2 ACHR to 3-CA, 2-MeOCA or 4-MeOCA. Concentration-response relationships for the peak agonist activated currents of oocytes injected with RNA coding for rat α4β2 subunits. Responses are first expressed relative to the response to 10 μM ACh, applied 5 min before drug-application, then normalized to the maximum response obtainable with ACh so that a response of 1 represents full efficacy. The ratio between 10 μM ACh and maximum ACh response was determined in separate experiments.
as §1

rat alpha7 receptor [3] = molecular target: T1, rat alpha7 receptor; assay: cell-based; parameters: Oocytes Antagonist: unit not given here
Method: FIG. 13B. Effects of chronic injections of DMXB or nicotine on high affinity [^3 H]ACh or [^125 I]α-bungarotoxin (BTX) binding in rat neocortices. Adult male rats were injected with saline vehicle, 1 mg/kg DMXB or 0.2 mg/kg nicotine (NIC) (IP) daily for 2 weeks. At that time, neocortices were removed and assayed for high affinity [^3 H]ACh or [^125 I]α-bungarotoxin binding as described in the text. […] Responses of rat α7 AChR to 3-CA, 2-MeOCA and 4-MeOCA. […] All responses are expressed relative to the oocyte-response to 500 μM ACh applied 5 min prior to the experimental agonist application.
as §1
Antagonist properties subsequent to agonist activity were measured as a decrease in responsiveness to ACh applied 5 min after compound-application, normalized to ACh application instead of the anabaseine-derivative (FIG. 13A AND FIG. 13B).

[4] = tested on: rat primary neocortical neurons; type: cell-based
rat = assay: Focal ischemia infarct size in rats; type: in vivo; details: 0.5 mg/kg IP mecamylamine with DMXB
Method: FIG. 3. […] Rats received a 30 minute ischemia attack through tying of their common carotid; the amount of cell death (proportional to Infarct Size) was determined 24 hours later. Some animals received the benzylidene-anabaseine compound DMXB (1 mg/kg IP, salt weight) 1 hour before ligation, or the nicotinic antagonist mecamylamine (0.5 mg/kg IP), or both mecamylamine and DMXB, or DMXB 5 minutes after the ligation.
Male Sprague Dawley albino male rats (250-300 g) were anesthetized with a subcutaneous injection of ketamine, xylazine, and acepromazine (3:3:1 mixture, 0.7 cc/kg). Atropine (0.4 mg/kg IP) was injected several min prior to dissection of the carotid artery from the vagus. The internal carotid artery (ICA) was dissected until its proximal bifurcation into the terminal ICA and pterygopalatine arteries were clearly defined. The pterygopalatine artery was clipped parallel to and flush with the terminal ICA. Another clip was applied to the common carotid artery (CCA). The distal aspect of the external carotid artery (ECA) was coagulated and a straight aneurysm clip was applied 4 mm distal to the proximal ICA bifurcation. A suture was passed through the arteriotomized ECA stump into the ICA until the tip was resting against the aneurysm clip. The suture was removed 30 min later, with body temperature maintained between 36.5-37.5° C. The ECA stump was coagulated with bipolar electrocautery. Clips were removed and the wound was irrigated with saline prior to suturing.
Rats were euthanised 24 hours post-infarction and their brains removed and sectioned coronally (2 mm). Sections were placed into a 2% solution of 2,3,5-triphyenyl-tetrazolium cholide (Sigma Chemical Co., St. Louis. Mo.) for 20 minutes at 37° C. The sections were removed to a petri dish and covered with 10% formaldehyde solution. The outline function of the NIH Image computer program (version 1.47) was used to estimate the infarcted and total brain areas for each section. Infarct size was calculated as percent of total brain area.

PC12 cells = type: cell-based; details: 10 μM (NGF 100 ng/ml); 4 days after removal of serum and NGF; mean±SEM; * p<0.05
Method: PC12 cell-culture methods were modified from Greene and Tischler (1976). Cells were plated at 30-40% confluence and grown in Dulbecco's Modified Eagle Medium containing 10% heat-inactivated horse serum, 5% fetal bovine serum, 100 units/ml penicillin, 100 μg/ml streptomycin and 0.5 mM 1-glutamine. Cultures were maintained at 37° C., […] /6% CO2 and 90-92% humidity in culture plates pre-coated with poly-1lysine (10 g/L). Cultures were maintained for 7 days in serum-supplemented medium to which 100 ng/ml rat 2.5S NGF was added at day 1. On day 7, conditioned medium was replaced serum-free medium containing specified drugs. Four days later, cell density was estimated using the NIH Image program version 1.47 and number of neurite-expressing cells counted manually in blind fashion as described previously (Martin et al., 1994). A Nikon inverted microscope (100× magnification) was attached to a Mac II computer via a monochrome video camera (Cohu, Inc., San Diego, Calif.). Four random areas were counted per plate and there were 4 plates per treatment group, unless otherwise indicated. Neurites were defined as processes at least 2× the length of the perikaryon. To assess the reliability of the image analyses, a reticle was used for direct quantification of cells in the same view as the one analyzed in random samples.
PC12 cells were differentiated for 1 week with NGF. Drugs were administered for the 4 day interval after removal of serum and NGF. Neuites were counted and expressed as the mean±SEM of at least 3 plates/group.

[5] = Table 4, read-out: Receptor Binding α7
[6] = read-out: alpha7 activation: response, normalized to 500 μM acetylcholine (maximum response)
[7] = read-out: alpha7 binding: % Inhibition of high affinity alphabungarotoxin binding (1 nM)

Sequence of alpha7 receptor (high affinity alpha-bungarotoxin binding, rat brain membranes) (Q05941 23-502): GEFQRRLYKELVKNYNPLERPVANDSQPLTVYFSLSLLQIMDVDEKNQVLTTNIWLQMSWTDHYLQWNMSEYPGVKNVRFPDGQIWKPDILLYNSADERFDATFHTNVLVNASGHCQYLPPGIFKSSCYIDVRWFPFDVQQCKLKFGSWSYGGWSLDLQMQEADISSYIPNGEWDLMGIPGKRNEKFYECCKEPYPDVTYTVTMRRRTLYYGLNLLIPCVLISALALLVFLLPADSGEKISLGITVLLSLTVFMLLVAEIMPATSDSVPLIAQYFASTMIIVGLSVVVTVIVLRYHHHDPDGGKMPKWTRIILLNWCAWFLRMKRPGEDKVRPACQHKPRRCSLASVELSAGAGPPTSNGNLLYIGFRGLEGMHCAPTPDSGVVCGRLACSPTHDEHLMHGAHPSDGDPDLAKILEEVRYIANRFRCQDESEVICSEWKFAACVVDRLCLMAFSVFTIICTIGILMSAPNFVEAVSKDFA
T1 sequence (Q05941 23-502): as above
Sequence of rat alpha4beta2 receptor (P09483 31-630): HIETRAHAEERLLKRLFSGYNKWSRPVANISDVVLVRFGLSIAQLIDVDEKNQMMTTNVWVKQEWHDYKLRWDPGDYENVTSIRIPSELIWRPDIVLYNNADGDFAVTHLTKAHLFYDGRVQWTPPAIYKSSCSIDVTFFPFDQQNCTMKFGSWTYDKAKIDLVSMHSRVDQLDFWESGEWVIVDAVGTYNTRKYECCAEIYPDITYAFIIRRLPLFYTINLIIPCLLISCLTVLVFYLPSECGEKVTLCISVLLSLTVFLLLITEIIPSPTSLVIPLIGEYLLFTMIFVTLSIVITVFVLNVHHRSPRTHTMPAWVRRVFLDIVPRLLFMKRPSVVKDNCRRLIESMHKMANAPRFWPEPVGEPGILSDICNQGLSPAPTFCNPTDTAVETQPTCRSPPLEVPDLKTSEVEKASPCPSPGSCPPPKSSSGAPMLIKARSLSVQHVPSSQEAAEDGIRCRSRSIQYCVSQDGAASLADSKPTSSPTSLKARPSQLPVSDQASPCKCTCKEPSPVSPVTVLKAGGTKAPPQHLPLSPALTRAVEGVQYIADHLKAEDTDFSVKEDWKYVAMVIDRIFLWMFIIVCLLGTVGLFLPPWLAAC
Sequence of rat alpha4beta2 receptor (P12390 25-500): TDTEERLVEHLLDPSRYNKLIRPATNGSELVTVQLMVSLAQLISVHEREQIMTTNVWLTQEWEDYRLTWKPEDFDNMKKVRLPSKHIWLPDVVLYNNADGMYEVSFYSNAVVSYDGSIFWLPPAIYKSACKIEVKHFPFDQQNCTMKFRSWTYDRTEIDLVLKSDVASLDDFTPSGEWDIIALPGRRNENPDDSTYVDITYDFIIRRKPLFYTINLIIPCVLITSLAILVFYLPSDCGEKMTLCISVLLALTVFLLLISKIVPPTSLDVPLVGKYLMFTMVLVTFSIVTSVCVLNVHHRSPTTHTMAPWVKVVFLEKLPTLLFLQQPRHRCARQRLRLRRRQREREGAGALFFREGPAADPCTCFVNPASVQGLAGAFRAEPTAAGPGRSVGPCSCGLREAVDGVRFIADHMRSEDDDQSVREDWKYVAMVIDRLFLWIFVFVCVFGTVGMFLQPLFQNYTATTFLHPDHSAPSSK

With `COc1ccc(C=C2CCCNC2c2cccnc2)c(OC)c1` (centres unmarked) [3(4-dimethoxy-benzylidene)anabasine] the inhibition at 1 µM [1, 5] was 9%.

In the case of `COc1ccc(C=C2CCCN=C2c2cccnc2)cc1` [GTS-2, 3-(4-methoxybenzylidene)anabaseine], the Emax (rat alpha7 receptor [2]; [6]) is reported as 7% and the Emax (rat alpha4beta2 receptor) is reported as 5%.

`Oc1ccc(C=C2CCCN=C2c2cccnc2)cc1` [GTS-7, 3-(4-hydroxybenzylidene)anabaseine] gave an inhibition at 1 µM [1, 5] of 69.3%, an inhibition at 1 µM ([1]; concentration of 1 μM (Table 1), read-out: alpha7 binding: % Inhibition of high affinity alphabungarotoxin binding (1 nM)) of 69% and an Emax (rat alpha7 receptor [2]; [6]) of 31%. It also gave an Emax (rat alpha4beta2 receptor) of 2%.

`Nc1ccc(C=C2CCCN=C2c2cccnc2)cc1` [GTS-13, 3-(4-aminobenzylidene)anabaseine] was tested, and the inhibition at 1 µM ([1]; read-out: Receptor Binding α7) was 93%, the inhibition at 1 µM [1, 7] was 93% and the Emax (rat alpha7 receptor [2]; read-out: Oocytes Agonist α7) was 72%. The Emax (rat alpha7 receptor [2]; [6]) was 72%, the Emax (rat alpha4beta2 receptor) was 5% and the “Oocytes Antagonist” value (rat alpha7 receptor [3]) was “.69”.

`COc1ccc(C=C2CCCN=C2c2cccnc2)c(O)c1` [GTS-51, 3-(2-hydroxy-4-methoxybenzylidene) anabaseine] was tested, and the inhibition at 1 µM [1, 7] was 45%, the Emax (rat alpha7 receptor [2]; read-out: Oocytes Agonist α7) was 29% and the Emax (rat alpha7 receptor [2]; [6]) was 29%. For the same molecule, the Emax (rat alpha4beta2 receptor) was 1% and the “Oocytes Antagonist” value (rat alpha7 receptor [3]) was “.26”.

With `COc1cc(O)ccc1C=C1CCCN=C1c1cccnc1` [GTS-62, 3-(4-hydroxy-2-methoxybenzylidene)anabaseine] the inhibition at 1 µM ([1]; read-out: Receptor Binding α7) was 84%, the inhibition at 1 µM [1, 7] was 84% and the Emax (rat alpha7 receptor [2]; read-out: Oocytes Agonist α7) was 43%. For the same molecule, the Emax (rat alpha7 receptor [2]; [6]) was 41%, the Emax (rat alpha4beta2 receptor) was 4% and the “Oocytes Antagonist” value (rat alpha7 receptor [3]) was “.35”.

With `COc1ccc(C(C)=C2CCCN=C2c2cccnc2)c(OC)c1` [GTS-80, 3-(2,4-dimethoxy-α-methyl-benzylidene)] the inhibition at 1 µM [1, 5] was 85%.

For `COc1cc(O)ccc1/C=C/C=C1\CCCN=C1c1cccnc1` [GTS-86, trans-3-(4-hydroxy-2-methoxycinnamylidene) anabaseine dihydrochloride], the inhibition at 1 µM [1, 5] was 90%.

For `COc1ccc(/C=C/C=C2\CCCN=C2c2cccnc2)c(OC)c1` [GTS-87, trans-3-(2,4-dimethoxycinnamylidene) anabaseine dihydrochloride], the inhibition at 1 µM [1, 5] was 76%.

`C[C@]12N[C@H](Cc3ccccc31)c1ccccc12` [MK-801] was tested, and the “protection against glutamate, concomitant (in words)” value ([4]; 10 μM, with 1 mM glutamate) was “blocking effect”.

In the case of `CN(C)CCCOc1ccc(C=C2CCCN=C2c2cccnc2)cc1` [compound 15, 3(4-dimethylaminopropoxy-benzylidene)anabaseine], the inhibition at 1 µM [1, 5] is reported as 87%, the Emax (rat alpha7 receptor [2]; Table 4, read-out: Oocytes Agonist α7) is reported as 3% and the “Oocytes Antagonist” value (rat alpha7 receptor [3]; Table 4) is reported as “.02”.

`C[N+](C)(C)CCCCCC[N+](C)(C)C` [hexamethonium] was tested, and the “antagonist effect on DMXB-induced neuroprotection (in words)” value (from here on “antagonist effect”) ([4]; against glutamate cytotoxicity) was “sensitive”.

With `CNC1(C)C2CCC(C2)C1(C)C` (centres unmarked) [mecamylamine, reference compound] the “block of neuroprotective action of DMXB (in words)” value (rat) was “blocked this neuroprotective action of DMXB; also recorded: blocking action” and the “antagonist effect” value ([4]; against glutamate cytotoxicity) was “sensitive”.

For `CCN1C[C@]2(COC(=O)c3ccccc3N3C(=O)C[C@H](C)C3=O)CC[C@H](OC)[C@@]34[C@@H]5C[C@H]6[C@H](OC)[C@@H]5[C@](O)(C[C@@H]6OC)[C@@](O)([C@@H](OC)[C@H]23)[C@@H]14` [methyllycaconitine], the “antagonist effect” value ([4]; against glutamate cytotoxicity) was “sensitive”.

`CN1CCCC1c1cccnc1` (centres unmarked) [nicotine] was tested, and the “protection by nicotine (in words)” value [4] was “protected against neuronal loss”.

For “(7'-methyl-3-(2,4-dimethoxybenzylidene)) anabaseine [7'-methyl-DMXB]”, the “alpha7 activation: response, normalized to 500 μM acetylcholine (maximum response)” value (rat alpha7 receptor [2]) was 0.32 and the “alpha4beta2 activation: response compared to maximal acetylcholine” value (rat alpha4beta2 receptor; xenopus oocytes) was 0.02.

With “NGF: nerve growth factor, 100 ng/ml (rat 2.5S NGF)” the “Neurite Counts” value (PC12 cells) was 342 ± 56.

For α-bungarotoxin [reference compound], the Kd ([1]; read-out: Kd, Scatchard analysis (r=0.98; single site model)) was 1.9 nM and the “antagonist effect” value [4] was “sensitive”.
